Values of other authors, collected in patent publication US8680301B2, “Lipase activity inhibitors containing high-molecular weight polyphenol fractions, tea extracts, and processes for producing the same” (Suntory Holdings Limited, priority 2004, dated 2014).

Conditions: clinical reports

Compound | Reported side effects
OC1(c2ccc(Cl)cc2)c2ccccc2C2=NCCN21 (centres unmarked) [Mazindole®] | side effects such as excessive thirst (mouth dryness), constipation, epigastric distress, nausea and vomiting
CCCCCCCCCCC[C@@H](C[C@@H]1OC(=O)[C@H]1CCCCCC)OC(=O)[C@H](CC(C)C)NC=O [Xenical®] | side effects such as fatty stool, increased stool frequency, soft stool, diarrhea and stomachache
